Data on 6 molecules can be found in patent publication US5041542A, “Substituted pyrimido[5,4-d]pyrimidine nucleosides” (Nucleic Acid Research Institute, priority 1988, dated 1991).

The conditions of series [1]: delivered at 0.01 ml/g mouse weight.
For series [2], the system named is vaccinia virus (Elstree strain). Type of series: cell-based. To be noted: HeLa cells; VR >1.0 marked, 0.5 to 0.9 moderate, <0.5 weak or no activity.
For series [3], the system named is parainfluenza 3 (C243 strain). Nature of the series: In vitro antiviral activity, parainfluenza 3 (virus rating). Type of series: cell-based. As to conditions: Vero cells; VR >1.0 marked, 0.5 to 0.9 moderate, <0.5 weak or no activity.
Series [4] relates to L1210. Kind of series: In vivo antitumor activity against L1210 in BDF1 mice. To be noted: qd; for T/C: day 1, at maximum soluble dosage. As for the experimental part: Compounds 8, 11, 14 and 17 were comparatively evaluated in vivo for efficacy against L1210 in BDF1 mice.
Mice were inoculated i.p. with 1×10^6 L1210 cells 24 hr before qd, day 1, i.p. drug delivery. Drugs were solubilized in water and delivered at the rate of 0.01 ml/g mouse weight. Then control mice/drug were injected i.p. with equivalent volumes of a 0.9% solution of NaCl, the means and standard deviations reflecting the postinoculation life spans of these mice ranged from 6.30±0.48 to 6.60±0.97 days.

In series [5] the test system is L1210 cells. Nature of the series: In vitro cytotoxicity, L1210. It counts as cell-based, murine. As to conditions: Mus musculus, L1210, 72 h; 3 days, 37° C., MTT; read-out: Antitumor (ID50) L1210. As for the experimental part:
(§1) ^b (ID50) inhibitory dose is the μM concentration of the
(§2) In vitro cytotoxicity analysis was performed by using the following cell lines: L1210 (a murine leukemia), WI-L2 (a human B-lymphoblast), and LoVo/L (a human colon carcinoma). Cells were grown in RPMI 1640 medium supplemented with 10% fetal bovine serum, 20 mM HEPES, pH 7.4, and 2 mM glutamine. The cytotoxicity determinations were carried out in 96-well microtiter dishes containing a starting number of 5-10×10^3 cells per well and 0.1-100 μM concentrations of the compounds in triplicate wells. L1210 and WI-L2 were incubated with the compounds at 37° C. for 3 days, while Lovo/L was incubated for 5 days. After this time period, 25 μL of 4 mg/mL 3-(4,5-dimethylthiazol-2-yl)-2,5-diphenyltetrazolium bromide was added to each well and incubation was continued for 2 to 5 h. The formazan product was dissolved in isopropanol containing 0.04M HCl and the absorbance was determined with a microtiter plate reader. The absorbance was proportional to the number of cells.

Series [6] in a line: Lethal toxicity in treated mice. As to conditions: i.p., maximum soluble dosage.
In series [7] the test system is herpes simplex virus type 2 (MS strain). Nature of the series: In vitro antiviral activity, herpes simplex virus type 2 (virus rating). As to conditions: Vero cells; VR >1.0 marked, 0.5 to 0.9 moderate, <0.5 weak or no activity. Type of series: cell-based.
The test system of series [8] is Herpes 2, parainfluenza 3 and Vaccinia. Type of series: cell-based. As to conditions: tested in parallel with ARPP (8).
The nature of series [9]: physchem. To be noted: water.
In series [10] the test system is WI-L2 cells. Nature of the series: In vitro cytotoxicity, WI-L2. Type of series: cell-based. As to conditions: Homo sapiens, WIL2, 72 h; 3 days, 37° C., MTT; read-out: Antitumor (ID50) WI-L2. Here is the method: as §1, §2
Series [11] concerns LoVo/L cells. Kind of series: In vitro cytotoxicity, LoVo/L. To be noted: Homo sapiens, 120 h, 5 days, 37° C., MTT, read-out: Antitumor (ID50) LoVo/L. It counts as cell-based. Here is the method: as §1, §2
The subject of series [12] is de novo purine biosynthesis in WI-L2 cells. Kind of series: Inhibition of de novo purine biosynthesis ([14C]formate incorporation). Type of series: cell-based, human. To be noted: for activity at 50 µM: pre-incubation 8 h. As for the experimental part:
Compounds of the invention were also tested for certain biochemical properties. Compounds of the invention were studied for their effect on de novo purine biosynthesis by observing inhibition of incorporation of [^14 C]formate into the acid-soluble fraction of WI-L2 cells (see Table 3). […] However, 8 and 14 (100 μM) were not cytotoxic to WI-L2 cells deficient in adenosine kinase activity.
A normal lymphoblast phenotype B cell line, WI-L2 was used. The enzyme-deficient cell lines used in vitro are: HPRT-, a hypoxanthine-guanine phosphorbosyl transferase (EC 2.4.2.8)deficient line and AK-, an adenosine kinase (EC 2.7.1.20)deficient line. Cells were cultured in RPMI 1640 medium containing 5% dialyzed fetal bovine serum, 20 mM Na HEPES, pH 7.5 and 2 mM glutamine and maintained in log phase growth between 0.5 and 12×10^5 cells/mL. The mutant cell lines were periodically reselected by treatment with 6-thioguanine (HPRT-) or tubercidin (AK-).
(§3) . Inhibition of de novo purine biosynthesis: WI-L2 or adenosine kinase-deficient cells were preincubated at 37° C. with drug for various time periods prior to labeling with [^14 C]formate. Enzyme Assays: Adenosine kinase inhibition studies were accomplished by the filter binding assay method. Inhibition studies were done at 37° C. with an assay mixture containing 4 mM ATP, 1.5 mM MgCl2, 5 or 10 μM [8-^14 C] adenosine (50 mCi/mmol) and 100 mM Tris-maleate, pH 5.5. To prevent the enzymatic breakdown of adenosine, erythro-9-(2-hydroxy-3-nonyl)adenine (EHNA) was added to the cell-free WI-L2 lysate to give 5 μM final assay concentration. The assay was started by the addition of protein. The amount of enzyme, time of assay and sampling volume were adjusted to give acceptable conversion of [8-^14 C] adenosine to [8-^14 C]AMP. Each DE-81 filter was spotted with a constant sampling volume and immersed in H 2 O (4 L) to terminate the reaction. Filters were washed three times with H2 O (4 L) and once with EtOH (100 mL). Dry filters were placed in scintillation vials and radioactivity was counted with 10 mL toluene-based scintillation cocktail.
De novo purine biosynthesis was measured by the incorporation of ^14 C-formate into cellular purine nucleotides or excreted purines after pre-incubation with compound.

The nature of series [13]: Anomerization in aqueous solution (reverse-phase HPLC). Type of series: physicochemical. As for the experimental part: This would be expected where the rate of anomerization is slow compared to the rate of deamination.
The compounds of the invention are capable of crossing the cell membrane, and activated to the 5'-phosphate, thus causing the inhibition of the de novo purine biosynthesis.
as §3, with “HPLC Analysis: Sample components were separated with an LKB model 2150 gradient HPLC system at ambient temperature on an Altex Ultrashere-ODS reverse phase column (Beckman) developed with a linear gradient of buffer A (10 mM KPO4 ', pH 3.83) to 20% component B (60% aqueous CH3 CN) at a combined flow rate of 1.0 mL/min over 15 min. Ultraviolet (UV) absorbance was monitored with an LKB model 2140 diode array detector. Inhibition of” for “. Inhibition of”

The test system of series [14] is pyrimidine (CTP + UTP) and purine (ATP + GTP) nucleoside triphosphates. Kind of series: 14C-bicarbonate incorporation into acid soluble pyrimidine and purine nucleoside triphosphates. Type of series: cell-based. From the text: Comparative effect of compounds on ^14 C-bicarbonate
incorporation into acid soluble pyrimidine (PyrTP,
CTP + UTP) and purine (PurTP, ATP + GTP) nucleoside

Where [15] appears, read: read-out: PurTP, % control, 50.0 μM.
The mark [16] stands for this setting: read-out: PydTP, % control, 50.0 μM.
[17] abbreviates: Homo sapiens, WIL2, cell, read-out: de novo purine biosynthesis, % of control, cell, 50 μM.
Setting [18] is: Homo sapiens, WIL2, media (excreted purines), read-out: de novo purine biosynthesis, % of control, media, 50 μM.

Structures are written as SMILES. Converted amounts (≈) assume the structure as drawn. Where two headings read alike, the source gives them in different places.

Consider `Nc1ncnc2c(N[C@H]3O[C@H](CO)[C@@H](O)[C@H]3O)ncnc12` [Compound 11, 4-Amino-8-(α-D-ribofuranosylamino)pyrimido[5,4-d]pyrimidine], for which the Maximum watersoluble dosage in [1] was found to be 22 mg/kg/inj. Further, the “Antiviral (VR) VV” value in series [2] turned out to be 1.0 VR. The “Antiviral (VR) PI3” value in series [3] is listed as 1.4 VR. For the same molecule, the “Postinoculation Lifespan (% T/C), 22 mg/kg/inj.” value in series [4] (22 mg/kg/inj. i.p., day 1) was found to be 138 % T/C. Also, the “T/C” value in [4] is 138. For the same molecule, the IC50 in series [5] amounted to 380 nM; in series [10] it was 250 nM; in series [11], 1000 nM. The “lethal toxicity at maximum soluble dosage” value in series [6] is given as “Neither drug was lethally toxic at its maximum soluble dosage”. Moreover, the “Antiviral (VR) HSV2” value in series [7] was 0.2 VR. Further, the “Antiviral activity in cell culture” value in series [8] is on record as “antiviral activity”. Also, the concentration in solution in [9] (solubility) was 2200 µg/mL (≈ 7.48 mM).

Consider `COc1ncnc2c(N[C@H]3O[C@H](CO)[C@@H](O)[C@H]3O)ncnc12` [Compound 17, 4-Methoxy-8-(α-D-ribofuranosylamino)pyrimido[5,4-d]pyrimidine], for which the Maximum watersoluble dosage in [1] was 37 mg/kg/inj. Moreover, in series [2], the “Antiviral (VR) VV” value worked out at 0.9 VR. The “Antiviral (VR) PI3” value in series [3] turned out to be 0.7 VR. Besides, in series [4] (37 mg/kg/inj. i.p., day 1), the “Postinoculation Lifespan (% T/C), 37 mg/kg/inj.” value turned out to be 116 % T/C. Also, the “T/C” value in [4] was 116. For the same molecule, the IC50 in series [5] was determined as 2900 nM; in [10], 2500 nM; in series [11], 18700 nM. Besides, the “Antiviral (VR) HSV2” value in series [7] is reported as 0.1 VR. Moreover, the “Antiviral activity in cell culture” value in series [8] was “antiviral activity”. The same molecule had a solubility in series [9] of 3700 µg/mL (≈ 12 mM). Also, in series [12] (4 h), the “purine de novo assay, short term” value is “inactive”. Further, in series [12] (Homo sapiens, WIL2, cell, 25 μM, pre-incubation 4 h, read-out: de novo purine biosynthesis, % of control, cell, 25 μM), the activity at 25 µM was determined as 98.2%. Further, in series [12] (separate assays, longer incubation times), the “purine de novo assay, longer incubation times” value is listed as “demonstrated the inhibitory activity”.

Turning to `O=c1[nH]cnc2c(N[C@@H]3O[C@H](CO)[C@@H](O)[C@H]3O)ncnc12` [Compound 21, 8-(β-D-Ribofuranosylamino)pyrimido[5,4-d]pyrimidin-4(3H)-one], the “anomeric equilibration in solution” value in series [13] is “equilibrated from pure β-anomer into a mixture of α- and β-anomers”. For the same molecule, the “PurTP, 50.0 μM” value in series [14] is given as 54484 cpm/10^6 cells. Also, in [14], the “PyrTP, 50.0 μM” value is reported as 15691 cpm/10^6 cells. Moreover, the “CAA (carbamyl aspartate), 50.0 μM” value in series [14] (zero = undetectable) is listed as 0 cpm/10^6 cells. Besides, the activity at 50 µM in series [14] (setting [15]) stood at 91.5%; in series [14] (setting [16]) it was 72.3%; in [12] (setting [17]), 98.2%; in [12] (setting [18]), 106%.

Take `CN(C)c1ncnc2c(N[C@@H]3O[C@H](CO)[C@@H](O)[C@H]3O)ncnc12` [Compound 27, 4-Dimethylamino-8-(β-D-ribofuranosylamino)pyrimido[5,4-d]pyrimidine]: the “PurTP, 50.0 μM” value in series [14] was determined as 40581 cpm/10^6 cells. Besides, the “PyrTP, 50.0 μM” value in series [14] is reported as 10177 cpm/10^6 cells. Moreover, the “CAA (carbamyl aspartate), 50.0 μM” value in series [14] (zero = undetectable) is 0 cpm/10^6 cells. In addition, the activity at 50 µM was found to be 68.2% in series [14] (setting [15]), 46.9% in [14] (setting [16]), 50.7% in series [12] (setting [17]) and 85.8% in [12] (setting [18]).

Consider `Nc1nc(N[C@@H]2O[C@H](CO)[C@@H](O)[C@H]2O)c2ncnc(N)c2n1` [Compound 35, 4,6-Diamino-8-(β -D-ribofuranosylamino)pyrimido[5,4-d]pyrimidine], for which the “PurTP, 50.0 μM” value in [14] was 58130 cpm/10^6 cells. The “PyrTP, 50.0 μM” value in [14] was determined as 15267 cpm/10^6 cells. Moreover, the “CAA (carbamyl aspartate), 50.0 μM” value in series [14] (zero = undetectable) is reported as 0 cpm/10^6 cells. Further, the activity at 50 µM in series [14] (setting [15]) is 97.7%; in series [14] (setting [16]) it was 70.4%; in series [12] (setting [17]) it was 91.2%; in [12] (setting [18]), 89.8%.

Consider `Nc1ncnc2c(N[C@@H]3O[C@H](CO)[C@@H](O)[C@H]3O)nc(Cl)nc12` [Compound 37, 4-Amino-6-chloro-8-(β-D-ribofuranosylamino)pyrimido[5,4-d]pyrimidine], for which the “PurTP, 15.0 μM” value in series [14] (15.0 μM) amounted to 39833 cpm/10^6 cells. In addition, the “PyrTP, 15.0 μM” value in [14] (15.0 μM) was 13454 cpm/10^6 cells. In [14] (15.0 μM, zero = undetectable), the “CAA (carbamyl aspartate), 15.0 μM” value turned out to be 0 cpm/10^6 cells. Further, the activity at 15 µM in series [14] (read-out: PurTP, % control, 15.0 μM) worked out at 66.9%; in series [14] (read-out: PydTP, % control, 15.0 μM), 62%. For the same molecule, the values for the activity at 50 µM in series [12] (setting [17]) and in series [12] (setting [18]) were 16.4% and 43.4%, respectively.
